Test results from ChEMBL document CHEMBL1201862, “PubChem BioAssay data set” (2004).
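In this assay, cells in 96-well plates receive the compound at five concentrations for 48 hours. Endpoints are linearly interpolated between the surrounding concentrations. GI50 marks 50% less growth.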 Activity calls are given as the source filed them. Rule as the data show it: active = GI50 up to about 1.1 µM and inactive = higher.

How the values were obtained:
Assay in all cases: inhibition of tumour cell growth, NCI panel, 48 h
[1] = system: UACC-62
[2] = system: SF-295
[3] = system: CCRF-CEM
[4] = system: A549
[5] = system: COLO 205
[6] = system: A498
[7] = system: Malme-3M
[8] = system: RXF 393
[9] = system: RPMI-8226
[10] = system: NCI-H23
[11] = system: UACC-257
[12] = system: SNB-19
[13] = system: SF-539
[14] = system: SF-268
[15] = system: Hs-578T
[16] = system: UO-31
[17] = system: SK-MEL-2
[18] = system: SN12C
[19] = system: NCI/ADR-RES
[20] = system: PC-3
[21] = system: HT-29
[22] = system: SK-OV-3
[23] = system: EKVX
[24] = system: U-251
[25] = system: SNB-75
[26] = system: SW-620
[27] = system: SK-MEL-28
[28] = system: HL-60
[29] = system: SR
[30] = system: T47D
[31] = system: K562
[32] = system: HCC 2998
[33] = system: KM12
[34] = system: HCT-116
[35] = system: IGROV-1
[36] = system: HOP-92
[37] = system: OVCAR-5
[38] = system: TK-10
[39] = system: NCI-H226
[40] = system: OVCAR-8
[41] = system: HOP-62
[42] = system: OVCAR-4
[43] = system: CAKI-1
[44] = system: ACHN
[45] = system: NCI-H460
[46] = system: LOX IMVI
[47] = system: NCI-H522
[48] = system: 786-0
[49] = system: SK-MEL-5
[50] = system: MDA-MB-231
[51] = system: MOLT-4
[52] = system: HCT-15
[53] = system: MDA-MB-435
[54] = system: DU-145
[55] = system: M14
[56] = system: OVCAR-3
[57] = system: MCF7
[58] = system: MDA-N

Measured: GI50

Cc1ccc(S(=O)(=O)N/N=c2/sc3ccccc3n2C)cc1
inactive: [1] > 100 µM | [2] > 100 µM | [3] > 100 µM | [4] > 100 µM | [5] > 100 µM | [6] > 100 µM | [7] > 100 µM | [8] > 100 µM | [9] > 100 µM | [10] > 100 µM | [11] > 100 µM | [12] > 100 µM | [13] > 100 µM | [14] > 100 µM | [15] > 100 µM | [16] > 100 µM | [17] > 100 µM | [18] > 100 µM | [19] > 100 µM | [20] > 100 µM | [21] > 100 µM | [22] > 100 µM | [23] > 100 µM | [24] > 100 µM | [25] > 100 µM | [26] > 100 µM | [27] > 100 µM | [28] > 100 µM | [29] > 100 µM | [30] > 100 µM | [31] > 100 µM | [32] > 100 µM | [33] > 100 µM | [34] > 100 µM | [35] > 100 µM | [36] > 100 µM | [37] > 100 µM | [38] > 100 µM | [39] > 100 µM | [40] > 100 µM | [41] > 100 µM | [42] > 100 µM | [43] > 100 µM | [44] > 100 µM | [45] > 100 µM | [46] > 100 µM | [47] 33.7 µM | [48] > 100 µM | [49] > 100 µM | [50] > 100 µM | [51] > 100 µM | [53] > 100 µM | [54] > 100 µM
> 100 µM: [52]

Cc1cc(N=C2C=C(Br)C(=O)C(Br)=C2)cc(CN(CC(=O)O)CC(=O)O)c1O
> 100 µM: [52]
inactive: [1] > 100 µM | [2] > 100 µM | [3] > 100 µM | [4] > 100 µM | [5] > 100 µM | [55] > 100 µM | [6] > 100 µM | [7] > 100 µM | [8] > 100 µM | [9] > 100 µM | [10] > 100 µM | [11] > 100 µM | [12] > 100 µM | [13] > 100 µM | [14] > 100 µM | [15] > 100 µM | [16] > 100 µM | [17] > 100 µM | [18] > 100 µM | [19] > 100 µM | [20] > 100 µM | [21] > 100 µM | [22] > 100 µM | [23] > 100 µM | [24] > 100 µM | [25] > 100 µM | [26] > 100 µM | [27] > 100 µM | [28] > 100 µM | [29] > 100 µM | [30] > 100 µM | [31] > 100 µM | [32] > 100 µM | [34] > 100 µM | [35] > 100 µM | [37] > 100 µM | [56] > 100 µM | [39] > 100 µM | [40] > 100 µM | [41] > 100 µM | [42] > 100 µM | [43] > 100 µM | [44] > 100 µM | [45] > 100 µM | [57] > 100 µM | [47] > 100 µM | [48] > 100 µM | [49] > 100 µM | [50] > 100 µM | [51] > 100 µM | [53] > 100 µM | [54] > 100 µM

O=C1Cc2c([nH]c3ccc(Cl)cc23)-c2ccccc2N1
inactive: [1] 74.6 µM | [2] > 100 µM | [4] > 100 µM | [5] > 100 µM | [55] > 100 µM | [6] > 100 µM | [7] > 100 µM | [58] > 100 µM | [9] > 100 µM | [10] > 100 µM | [12] > 100 µM | [14] > 100 µM | [15] > 100 µM | [16] > 100 µM | [18] > 100 µM | [19] > 100 µM | [22] > 100 µM | [24] > 100 µM | [25] > 100 µM | [27] > 100 µM | [30] > 100 µM | [34] 3.17 µM | [35] > 100 µM | [36] > 100 µM | [38] > 100 µM | [39] > 100 µM | [40] > 100 µM | [42] > 100 µM | [44] > 100 µM | [45] > 100 µM | [57] > 100 µM | [46] 2.13 µM | [47] > 100 µM | [48] > 100 µM | [49] > 100 µM | [50] > 100 µM | [53] > 100 µM
